Experimental data as given in PMC3606385 (PLoS ONE, 2013).
“And” between values parts separate entries of the source, which are not always exact repeats. Equal values may be shown once. Read-outs that look alike come from different tables or passages of the source.

Tests used:
[1] = human, oral doses up to 8 g; cited from earlier work
Human 11β-HSD1 = biological target: T1, Human 11β-HSD1 (Homo sapiens, UniProt P28845); assay: 11β-HSD1 assay in intact CHOP cells transfected with human HSD11B1; type: cell-based
T1 construct: expressed in transfected cells; host or cells: CHOP cells (transient, FuGENE)
Protocol: An expression plasmid was constructed to express human 11β-HSD1 (HSD11B1) cDNA in pcDNA I expression vector from its original human HSD11B1 vector (pBluescriptSK+).[15]. The Escherichia coli transformants carrying an insert were selected by colony hybridization, and a clone with the insert in the correct orientation relative to the vector T7 promoter was identified by restriction mapping. All transfections were carried out on 80% confluent cultures in 12-well plates. Aliquots of 1 µg HSD11B1 pcDNA I were transfected into mammalian CHOP cells with the FuGENE Transfection Reagent (Roche) according to manufacturer's protocol. Cells were allowed to grow for 24 hours in media containing 10% fetal bovine serum. Then media were removed and cells were harvested for 11β-HSD1 activity assay.
11β-HSD1 reductase activity was performed in intact cells using endogenous cofactor NADPH as described previously. […] 25×10^3 cells were added to each tube to initiate the reaction and the reaction mixture was incubated for up to 2 hrs, during which the reaction is within the linear range. At the end of reaction, the reaction was stopped by adding 2 ml ice-cold ether. The steroids were extracted, and the organic layer was dried under nitrogen. The steroids were separated chromatographically on thin layer plates in chloroform and methanol (90∶10, v/v), and the radioactivity was measured using a scanning radiometer (System AR2000, Bioscan Inc., Washington, DC) as described previously. The percentage conversion of 11DHC to CORT or cortisone to cortisol was calculated by dividing the radioactive counts identified as 11-OH-steroids by the total counts.
(§1) The IC50 was determined by adding different concentrations of each compound in the 11β-HSD1 or 11β-HSD2 reaction as described. The mode of inhibition was assayed by adding various concentrations of steroid substrates in the presence of an inhibitor as described.

Human 11β-HSD2 = biological target: T2, Human 11β-HSD2 (Homo sapiens, UniProt P80365); assay: 11β-HSD2 assay in human kidney microsomes; type: biochemical; details: human kidney microsomes
T2 construct: tissue Gentest (Woburn, MA); host or cells: human kidney microsomes
T2 sequence (P80365 1-405): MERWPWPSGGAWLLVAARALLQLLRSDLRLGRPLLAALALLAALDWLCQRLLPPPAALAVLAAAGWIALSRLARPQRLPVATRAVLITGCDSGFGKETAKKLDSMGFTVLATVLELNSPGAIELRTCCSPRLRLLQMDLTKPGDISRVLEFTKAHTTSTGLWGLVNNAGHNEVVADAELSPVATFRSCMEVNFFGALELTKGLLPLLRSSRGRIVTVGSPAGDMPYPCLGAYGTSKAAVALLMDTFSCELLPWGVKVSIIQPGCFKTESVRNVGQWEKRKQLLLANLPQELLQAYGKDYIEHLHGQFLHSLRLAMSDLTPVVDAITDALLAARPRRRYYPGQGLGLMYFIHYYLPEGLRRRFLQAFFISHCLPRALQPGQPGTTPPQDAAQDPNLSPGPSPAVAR
Protocol: The rat and human kidney microsomes were used for 11β-HSD2 sources. 11β-HSD2 activity was performed in the microsome according to a previously described method. In brief, the assay tubes contained 25 nM substrate CORT (for rat) or cortisol (for human), spiked with 30,000 cpm their respective ^3H-11β-hydroxyl steroid, 0.2 mM NAD+ and 0.1 mM DTT in the PBS buffer. 8 (rat) or 20 (human) µg kidney microsomes were added to each tube to initiate the reaction and the reaction mixture was incubated for up to 3 hrs, during which the reaction is within the linear range. The rest procedure was similar to 11β-HSD1 assay. The percentage conversion of CORT to 11DHC or cortisol to cortisone was calculated by dividing the radioactive counts identified as 11keto-steroids by the total counts.
as §1

human liver 11β-HSD1 = biological target: T3, human liver 11β-HSD1 (Homo sapiens, UniProt P28845); assay: Mode of inhibition, human liver 11β-HSD1; type: biochemical; details: data not shown
T3 construct: tissue Gentest (Woburn, MA); host or cells: human liver microsomes
Protocol: The rat testis and liver or human liver microsomes were used for 11β-HSD1 assay. 11β-HSD1 activity was performed in the microsome according to a previously described method. In brief, the assay tubes contained 25 nM substrate 11DHC (for rat) or cortisone (for human), spiked with 30,000 cpm their respective ^3H-11keto-steroid, 0.2 mM NADPH and 5 mM glucose-6-phosphaare in the PBS buffer. 2 µg microsomes were added to each tube to initiate the reaction and the reaction mixture was incubated for up to 2 hrs, during which the reaction is within the linear range. The rest procedure was similar to 11β-HSD1 assay in intact cells.
as §1
Enzyme data were subjected to nonlinear analysis by GraphPad (Version 5, GraphPad Software Inc., San Diego, CA) for IC50. Lineweaver-Burk plot was used for the mode of inhibition. Data were subjected to analysis by one-way ANOVA followed by Tukey's multiple comparisons testing to identify significant differences between groups when three were calculated. Differences were regarded as significant at P<0.05.

T1 sequence (P28845 whole entry): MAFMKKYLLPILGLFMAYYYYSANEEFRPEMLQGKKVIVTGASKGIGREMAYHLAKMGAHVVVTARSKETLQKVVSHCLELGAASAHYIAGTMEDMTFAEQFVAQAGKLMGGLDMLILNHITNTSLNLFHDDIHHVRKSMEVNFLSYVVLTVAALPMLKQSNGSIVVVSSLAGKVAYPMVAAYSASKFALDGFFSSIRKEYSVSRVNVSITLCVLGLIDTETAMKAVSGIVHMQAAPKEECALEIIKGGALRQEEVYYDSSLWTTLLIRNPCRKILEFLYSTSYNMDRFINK
T3 sequence (P28845 whole entry): as above

COc1cc(/C=C/C(=O)CC(=O)/C=C/c2ccc(O)c(OC)c2)ccc1O [1 (Curcumin), Curcumin]
Time to peak level after oral administration [1]: ≤ 1 h
IC50 (Human 11β-HSD1; CHOP cells transfected with human HSD11B1, read-out: Human 11β-HSD1 IC50 (nM) in CHOP cells): 2300 nM
IC50 (Human 11β-HSD1; IC50 human 11β-HSD1 in intact cells, intact CHOP cells transfected with human HSD11B1): 5780 ± 2220 nM
IC50 (Human 11β-HSD1; intact CHOP cells transfected with human HSD11B1, read-out: IC50 human 11β-HSD1 in intact cells): 2290 nM and 2000 to 6000 nM and 2300 nM
IC50 (Human 11β-HSD2; read-out: IC50 (nM) Human 11β-HSD2): 14600 nM
IC50 (Human 11β-HSD2; read-out: IC50 human 11β-HSD2): 14600 nM
Mode of inhibition of human 11β-HSD1 (human liver 11β-HSD1): competitive inhibitor
